Reference: PMC9313812, “The Pseudo‐Natural Product Rhonin Targets RHOGDI” (Angewandte Chemie (International Ed. in English), 2022)

Tests used:
[1] = tested on: GTP-bound RHO GTPases (RHOA, RAC1, CDC42); test: G-LISA activation assays; format: cell-based; conditions: 10 μM, 24 h
Procedure: 40,000 x g for 30 min at 4°C. Supernatants were collected as cytoplasmic fraction and pellets were resuspended into a homogenization buffer (0.25 M sucrose, 20 mM Tris/HCl pH 7.4, 25 mM KCl, 5 mM MgCl2) and further centrifuged (2 h at 100,000 x g) using an iodixanol (OptiPrep, Axis Shield) gradient solution. Obtained fractions were used for immunoblotting.
NIH/3T3 cells were seeded in a 96 plate (10,000 cell per well/ plate name: Essen Bioscience NO 4379). NIH/3T3 cells were grown till 80% confluence and then serum starved (0 % FCS) for 24 h. Scratch was performed using the Incucyte Woundmaker Tool. Next, 10 µM Rhonin was added to the wells. As controls, 2 µg/ml RHO inhibitor I (cat#CT04/ cytoskeleton) and 0.5% DMSO were used. Cell migration was monitored using IncuCyte ZOOM for a period of 48 h. The images were analyzed by the Incucyte Scratch Wound Analysis Software.
G-LISA activation assays for RHOA, RAC1 and CDC42 […]
GTPase primary antibody (RAC1, CDC42 or RHOA) was added and the tubes and were incubated for 45 min at room temperature. […] Absorption was detected at 490 nm using a plate reader (Tecan Sparks).
Aqueous solubility of compounds was assessed by determination of the kinetic solubility of a test compound in aqueous buffer compared to a solution in organic solvent (acetonitrile). […]

[2] = tested on: Alpl expression in C3H10T1/2 cells; test: RT-qPCR of Alpl mRNA; format: cell-based, mouse; conditions: 1.5 μM purmorphamine, 96 h
Procedure: (§1) Supplementary Figure S6 (related to Figure 5). Characterization of compound 7l (Rhonin).
(§2) (a) GLI-responsive reporter gene assay in SHH-LIGHT2 cells. (b) Influence of Rhonin on the expression of Alpl. C3H10T1/2 cells were treated with 1.5 µM purmorphamine and the compounds for 96 h prior to RT-qPCR to detect Alpl mRNA levels. Data were normalzed to Gapdh and Ap3d1 gene levels and are mean values (n = 3) ± SD. (c) Detection of cilia in NIH/3T3 cells. NIH/3T3 cells were cultured in serum reduced (0.5 % FCS) medium for 24 h to induce cilia formation, followed by a pre-treatment of cells with different concentrations of 7l or Vismodegib or DMSO as a control in serum reduced medium. […]
projections, after previous background subtraction. For quantification, cilia were identified and […]
Smoothened antibody were measured within these areas. […]
significances were assessed using an unpaired t-test (confidence interval of 95%) with the […]
replicates were performed and for each replicate at least 100 cilia per condition were analyzed.
Reverse transcription- quantitative PCR (RT-qPCR) […]
DNase I digestion step. The concentration of purified RNA was determined by means of the […]
QuantiTect Reverse Transcription Kit (Qiagen) according to the manufacturer’s protocol. […]
determined by means of quantitative RT-PCR using the QuantiFast SYBR Green PCR Kit […]

[3] = tested on: NIH/3T3 cells; test: Detection of cilia (acetylated tubulin staining); format: cell-based
Procedure: as §1
as §2, with “medium. After another 24h cells were treated with 2 µM purmorphamine or DMSO as a control and with different concentrations of 7l, or Vismodegib or DMSO as a control for 24 h.” for “medium.”
cilia were stained with an antibody against acetylated tubulin. SMO was marked with an anti-SMO antibody and DAPI was used to stain the nuclei. For quantification of cilia, at least 100 cilia per condition and biological replicate were analyzed for the intensity of anti-acetylated tubulin antibody staining. […] Statistical significance was evaluated using an unpaired t-test with a confidence interval of 95 % (p ≤ n.s.). […]

SMILES: COC(=O)C1(C(CC(=O)c2cccnc2)c2ccccc2)N=C(c2ccc(Br)cc2)C2C(=O)N(C)C(=O)C21 (stereo not drawn) [7l]
- Levels of GTP-bound RHO GTPases (in words) [1]: increased
- Expression of the alkaline phosphatase gene Alpl (in words) [2]: inhibited the expression of the alkaline phosphatase gene
- Cilia formation (in words) [3]: cilia formation was not affected
